Type in all cases: functional
Assay [1] deals with Rattus norvegicus. The assay can be described thus: Antihyperglycemic activity in streptozotocin-induced nonfasted diabetic rat assessed as decrease in blood glucose level at 30 mg/kg, po administered for 3 days measured 1 hr after last dose. On the set-up: scale not given: the % may be the effect or the level left.
The test system of assay [2] is Rattus norvegicus. Nature of the assay: Antihyperglycemic activity in streptozotocin-induced nonfasted diabetic rat assessed as decrease in blood glucose level at 20 mg/kg, po administered for 3 days measured 1 hr after last dose. On the set-up: scale not given: the % may be the effect or the level left.
Assay [3] concerns Rattus norvegicus. Nature of the assay: Effect on nondiabetic rat assessed as blood glucose level per 100 mL at 20 mg/kg, po.
For assay [4], the species on record is Rattus norvegicus. Nature of the assay: Decrease in body weight in nondiabetic rat. On the set-up: scale not given: the % may be the effect or the level left.

As to `CN(C)C(=N)NC(=N)N` [METFORMIN], in the assay on Rattus norvegicus [1], the Activity is recorded as 48%.

Take `COc1cc(O)cc2c1C(=O)C(O)(Cc1ccc(O)cc1)O2` (configuration not stated) [CARPUSIN]: the figures for the Activity with Rattus norvegicus [2], with Rattus norvegicus [3] and in the assay listed under Rattus norvegicus [4] were 33%, 64% and 20%, respectively.

Take `COc1cc(/C=C/c2ccc(O)cc2)cc(OC)c1` [PTEROSTILBENE]: the Activity with Rattus norvegicus [2] is reported as 11%; in the assay with Rattus norvegicus [3], 65%; in the assay listed under Rattus norvegicus [4], 20%.

(Values after ChEMBL document CHEMBL1146404, “Antihyperglycemic activity of phenolics from Pterocarpus marsupium” (1997).)
